In general, IC50 refers to the concentration at which inhibition is half-maximal. The low end stands for inhibition by little substance, the high end for a need for much substance.

The target of the experiment is mTOR enzyme (Homo sapiens, UniProt P42345). Description: mTOR Kinase Assay. In kind it is biochemical. To be noted: 5 μM ATP, 0.1 μM GSTS6K substrate. The protocol: The mTOR assay buffer contains 10 mM hepes (pH 7.4), 50 mM NaCl, 100 μg/ml BSA, 50 mM B-glycerophosphate, 10 mM MnCl2 and 0.5 mM DTT. 20 ng of mTOR enzyme is preincubated with the compound for 10 minutes. 5 μM ATP and 0.1 μM GSTS6K is added. The reaction is incubated for one hour at 30° C. Anti phospho p70S6K (about 1.7 ng/well) and anti GSTXL665 (1:1 Ratio with the substrate GSTS6K) are added after incubating. The plates are read at least 2 hours after adding the anti phospho p70S6K and the anti GSTXL665.
Dose-response curves were plotted from inhibition data generated, each in duplicate, from 8 point serial dilutions of inhibitory compounds. Concentration of compound was plotted against % kinase activity, calculated by CPM of treated samples divided by CPM of untreated samples. To generate IC50 values, the dose-response curves were then fitted to a standard sigmoidal curve and IC50 values were derived by nonlinear regression analysis.
Consider `O=C1CCNc2c1c(C1CC3CCC(C1)N3C(=O)c1nnc[nH]1)nc1c(-c3ccc(-c4ccccc4)nc3)cnn21` (stereo not drawn) [Example 1, 5-(8-(4H-1,2,4-triazole-3-carbonyl)-8-azabicyclo[3.2.1]octan-3-yl)-3-(6-phenylpyridin-3-yl)-8,9-dihydropyrazolo[1,5-a]pyrido[3,2-e]pyrimidin-6(7H)-one], for which the IC50 is less than 10 nM.
In the case of `O=C(c1nnc[nH]1)N1C2CCC1CC(c1nc3c(-c4ccc(-c5ccccc5)nc4)cnn3c3[nH]ccc(=O)c13)C2` (stereo not drawn) [Example 2, 5-(8-(4H-1,2,4-triazole-3-carbonyl)-8-azabicyclo[3.2.1]octan-3-yl)-3-(6-phenylpyridin-3-yl)pyrazolo[1,5-a]pyrido[3,2-e]pyrimidin-6(9H)-one], the 50% inhibitory concentration (IC50) was less than 10 nM.
The molecule `Cn1ccc(-c2ccc(-c3cnn4c5c(c(C6CC7CCC(C6)N7C(=O)c6nnc[nH]6)nc34)C(=O)CCN5)cn2)n1` (stereo not drawn) [Example 4] registered an IC50 of less than 10 nM.
With `Cn1ccc(-c2ccc(-c3cnn4c5c(c(C6CC7CCC(C6)N7C(=O)C(C)(CO)CO)nc34)C(=O)CCN5)cn2)n1` (stereo not drawn) [Example 5] the figure was less than 10 nM; with `COc1ccc(-c2ccc(-c3cnn4c5c(c(C6CC7CCC(C6)N7C(=O)CO)nc34)C(=O)CCN5)cn2)cc1F` (stereo not drawn) [Example 6], less than 10 nM; with `COc1ccc(-c2ccc(-c3cnn4c5c(c(C6CC7CCC(C6)N7C(=O)C(C)(CO)CO)nc34)C(=O)CCN5)cn2)cc1F` (stereo not drawn) [Example 8], less than 10 nM.
Next, `O=C1CCNc2c1c(C1CC3CCC(C1)N3C(=O)c1nnc[nH]1)nc1c(-c3ccc(-c4ccccn4)nc3)cnn21` (stereo not drawn) [Example 12]: less than 10 nM; `O=C1CCNc2c1c(C1CCN(C(=O)c3nnc[nH]3)CC1)nc1c(-c3ccc(-c4ccccc4)nc3)cnn21` [Example 15, 5-(1-(4H-1,2,4-triazole-3-carbonyl)piperidin-4-yl)-3-(6-phenylpyridin-3-yl)-8,9-dihydropyrazolo[1,5-a]pyrido[3,2-e]pyrimidin-6(7H)-one]: less than 10 nM.
With `O=C1CCNc2c1c(C1CCN(C(=O)CO)CC1)nc1c(-c3ccc(-c4ccccc4)nc3)cnn21` [Example 16] the figure was less than 10 nM.
In the case of `C[C@@H](O)C(=O)N1CCC(c2nc3c(-c4ccc(-c5ccccc5)nc4)cnn3c3c2C(=O)CCN3)CC1` [Example 17], the IC50 was less than 10 nM.
`CC(CO)(CO)C(=O)N1CCC(c2nc3c(-c4ccc(-c5ccccc5)nc4)cnn3c3c2C(=O)CCN3)CC1` [Example 18] showed an IC50 of less than 10 nM.
For the molecule `O=C1CCNc2c1c(N1CCOCC1)nc1c(-c3cnc4ccccc4c3)cnn21` [Example 19, 5-morpholino-3-(quinolin-3-yl)-8,9-dihydropyrazolo[1,5-a]pyrido[3,2-e]pyrimidin-6(7H)-one], the IC50 is 10 to 100 nM.
`C[C@@H]1CN(c2nc3c(-c4ccc(-c5ccccc5)nc4)cnn3c3c2C(=O)CCN3)C[C@H](C)O1` [Example 20, 5-((2R,6S)-2,6-dimethylmorpholino)-3-(6-phenylpyridin-3-yl)-8,9-dihydropyrazolo[1,5-a]pyrido[3,2-e]pyrimidin-6(7H)-one] had an IC50 of 10 to 100 nM.
`O=C1CCNc2c1c(N1CCS(=O)(=O)CC1)nc1c(-c3cnc4ccc(F)cc4c3)cnn21` [Example 21] showed an IC50 of less than 10 nM.
Next, `O=C1CCNc2c1c(N1CCS(=O)(=O)CC1)nc1c(-c3ccc(-c4ccccc4)nc3)cnn21` [Example 22]: less than 10 nM; `O=C1CCNc2c1c(C1CCS(=O)(=O)CC1)nc1c(-c3ccc(-c4ccccc4)nc3)cnn21` [Example 23, 3-(6-phenylpyridin-3-yl)-5-(tetrahydro-1,1-dioxido-2H-thiopyran-4-yl)-8,9-dihydropyrazolo[1,5-a]pyrido[3,2-e]pyrimidin-6(7H)-one]: less than 10 nM.
With `O=C1CCNc2c1c(C1CCS(=O)(=O)CC1)nc1c(-c3cnc4ccccc4c3)cnn21` [Example 24, 3-(quinolin-3-yl)-5-(tetrahydro-1,1-dioxido-2H-thiopyran-4-yl)-8,9-dihydropyrazolo[1,5-a]pyrido[3,2-e]pyrimidin-6(7H)-one] the figure was 10 to 100 nM; with `COCCO[C@]1(C(=O)O)CC[C@@H](c2nc3c(-c4cnn(-c5ccccc5)c4)cnn3c3c2C(=O)CCN3)CC1` [Example 25, (1r,4r)-1-(2-methoxyethoxy)-4-(6-oxo-3-(1-phenyl-1H-pyrazol-4-yl)-6,7,8,9-tetrahydropyrazolo[1,5-a]pyrido[3,2-e]pyrimidin-5-yl)cyclohexanecarboxylic acid], less than 10 nM.
Next, `O=C1CCNc2c1c(C1C[C@H]3COC[C@@H](C1)N3C(=O)c1nc[nH]n1)nc1c(-c3ccc(-c4ccccc4)nc3)cnn21` (stereo partly drawn) [Example 27, 5-((1R,5S)-9-(1H-1,2,4-triazole-3-carbonyl)-3-oxa-9-azabicyclo[3.3.1]nonan-7-yl)-3-(6-phenylpyridin-3-yl)-8,9-dihydropyrazolo[1,5-a]pyrido[3,2-e]pyrimidin-6(7H)-one]: less than 10 nM; `CC(NC1CCOCC1)c1nc2c(-c3cnc4ccc(F)cc4c3)cnn2c2c1C(=O)CCN2` (stereo not drawn) [Example 28, 3-(6-fluoroquinolin-3-yl)-5-(1-(tetrahydro-2H-pyran-4-ylamino)ethyl)-8,9-dihydropyrazolo[1,5-a]pyrido[3,2-e]pyrimidin-6(7H)-one]: more than 100 nM; “(1r,4r)-1-(2-methoxyethoxy)-4-(3-(6-(1-methyl-1H-pyrazol-3-yl)pyridin-3-yl)-6-oxo-6,7,8,9-tetrahydropyrazolo[1,5-a]pyrido[3,2-e]pyrimidin-5-yl)cyclohexanecarboxylic acid [Example 26]”: less than 10 nM.

These data come from patent publication US8703784B2, “Substituted pyrazolo[1,5-a]pyrido[3.2-e]pyrimidin-6-one inhibitors of mammalian target of rapamycin” (Merck Sharp & Dohme Corp., priority 2010, dated 2014).
